The results in this text go back to patent US10053468B2, “Heterocyclic compound” (TAKEDA PHARMACEUTICAL COMPANY LIMITED, priority 2013, dated 2018).

The target of experiment [1] is T1, RORγt (Homo sapiens, UniProt P51449).
T1 sequence (P51449 1-497 isoform P51449-2): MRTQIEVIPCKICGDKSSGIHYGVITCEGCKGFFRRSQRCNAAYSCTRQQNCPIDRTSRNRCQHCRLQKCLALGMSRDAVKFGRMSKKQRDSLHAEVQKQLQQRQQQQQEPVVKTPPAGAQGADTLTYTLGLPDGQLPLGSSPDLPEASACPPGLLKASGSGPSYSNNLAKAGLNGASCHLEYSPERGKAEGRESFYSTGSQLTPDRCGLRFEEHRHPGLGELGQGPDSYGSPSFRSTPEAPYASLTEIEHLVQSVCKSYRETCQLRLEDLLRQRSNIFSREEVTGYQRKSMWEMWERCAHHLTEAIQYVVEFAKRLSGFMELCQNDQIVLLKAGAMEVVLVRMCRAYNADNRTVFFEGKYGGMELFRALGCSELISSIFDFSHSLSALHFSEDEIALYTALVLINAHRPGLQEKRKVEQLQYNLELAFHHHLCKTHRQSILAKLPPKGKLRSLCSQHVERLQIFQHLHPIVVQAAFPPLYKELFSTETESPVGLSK
Nature of the experiment: Jurkat reporter test (human IL-17 ROR response element luciferase, RORγt vector). In kind it is cell-based. As to conditions: read-out: Luminescence level inhibitory rate at test compound 3 μM (%). As for the experimental part: The Jurkat cells used for the reporter test were cultured in a culture medium (RPMI (Invitrogen), 10% FCS (AusGeneX), 100 U/mL penicillin, 100 μg/mL streptomycin). On the day of the test, 4×10^7 cells were recovered by a centrifugal operation (1000 rpm, 5 min.) and suspended in PBS (phosphate buffered saline) (Invitrogen). Thereafter, the cells were recovered again by a centrifugal operation, and suspended in 2 mL of R buffer (NEON transfection kit, Invitrogen). […] Gene transfer was performed by Electroporation apparatus (NEON, Invitrogen) under the conditions of pulse voltage 1350 V, interval 10 milliseconds, number of times 3. The cells after gene transfer were suspended in 40 mL of a reaction medium (RPMI, 10% Lipid reduced FCS (HyClone), 10 mM HEPES (pH 7.5), 100 U/mL penicillin, 100 μg/mL streptomycin, 5 μM lovastatin), and plated in a 96 well plate by 90 μL. A test compound diluted with the reaction medium was added by 10 μL, and the cells were cultured overnight in an incubator. Bright-Glo (Promega) was added by 100 μL, and the mixture was stirred at room temperature for 10 min, and the luminescence level was measured by Envision (PerkinElmer).

The target of experiment [2] is T1, RORγt. As to the kind of experiment: RORγt binding test using fluorescent-labeled synthetic ligand (TR-FRET). As to conditions: read-out: Binding inhibitory rate of fluorescent-labeled synthetic ligand to RORγt at test compound 1 μM (%). Here is the method: RORγt Binding Test Using Fluorescent-labeled Synthetic Ligand
(§1) The binding activity of the test compound to RORγt was measured by a time resolved fluorescence resonance energy transfer method (TR-FRET) utilizing histidine-tagged RORγt, fluorescent-labeled synthetic ligand, and terbium-labeled anti-histidine tag antibody (Invitrogen). First, a test compound diluted with an assay buffer (20 mM Tris-HCl (pH 7.5), 100 mM NaCl, 1 mM DTT, 0.1% BSA) was added to a 384 well plate by 3 μL. Then, RORγt diluted with an assay buffer to 240 nM was added by 3 μL, after which fluorescent-labeled synthetic ligand diluted with the assay buffer to 12 μM was added by 3 μL, and the mixture was stood at room temperature for 20 min. Thereafter, a terbium-labeled anti-histidine tag antibody diluted with the assay buffer to 8 nM was added by 3 μL. The mixture was stood at room temperature for 20 min, and fluorescence intensity (excitation wavelength 320 nm, fluorescence wavelength 520 nm, delay time 100 microseconds) was measured by Envision (PerkinElmer).

The target of experiment [3] is T1, RORγt. As to the kind of experiment: Cofactor recruitment test (Alpha Screen, biotinylated SRC-1 peptide). The format is biochemical. As to conditions: read-out: Signal value inhibitory rate at test compound 1 μM (%). As for the experimental part: Cofactor Recruitment Test
Cofactor recruitment test was performed by Alpha Screen (Histidine Detection Kit, PerkinElmer) method. First, a test compound was diluted with an assay buffer (50 mM Tris-HCl (pH 7.5), 50 mM KCl, 1 mM DTT, 0.1% BSA) and added to a 384 well plate by 5 μL. […] The mixture was stood in a dark place for 1 hr, and the signal value was measured by Envision (PerkinElmer).

Experiment [4] addresses T1, RORγt. Nature of the experiment: RORγt binding test using fluorescent-labeled cholesterol (TR-FRET). As to conditions: read-out: Binding inhibitory rate of fluorescent-labeled cholesterol to RORγt at test compound 1 μM (%). Here is the method: RORγt Binding Test Using Fluorescent-labeled Cholesterol
as §1, with “cholesterol (BODIPY-cholesterol, AVIVA),” for “synthetic ligand,”, “cholesterol” for “synthetic ligand”
Background: Time-resolved FRET reads energy transfer from a long-lived donor to a nearby acceptor.

Setting [5] is: test compound 3 μM, Jurkat cells.

The structures appear in SMILES notation. Read-outs that look alike come from different tables or passages of the source.

As to `CCOc1ccc2c(c1)CCN(C(=O)NCCCC(=O)O)[C@H]2C(=O)Nc1cc(F)c([Si](C)(C)C)c(F)c1` [Example 238, 4-((((1R)-1-((3,5-difluoro-4-(trimethylsilyl)phenyl)carbamoyl)-6-ethoxy-3,4-dihydroisoquinolin-2(1H)-yl)carbonyl)amino)butanoic acid], the inhibition at 3 µM on RORγt [1] (Jurkat) turned out to be 100%. In addition, the inhibition at 1 µM is 101% on RORγt [2] and 92% at RORγt [3].
Turning to `CCOc1ccc2c(c1)CCN(C(=O)NCCC(=O)O)[C@H]2C(=O)Nc1cc(F)c([Si](C)(C)C)c(F)c1` [Example 227, N-(((1R)-1-((3,5-difluoro-4-(trimethylsilyl)phenyl)carbamoyl)-6-ethoxy-3,4-dihydroisoquinolin-2(1H)-yl)carbonyl)-beta-alanine], at RORγt [1] (Jurkat), the inhibition at 3 µM came out at 101%. The inhibition at 1 µM at RORγt [2] is 102%; on RORγt [3], 95%.
Consider `CC[Si](C)(C)c1c(F)cc(NC(=O)[C@H]2c3ccc(OC)cc3CCN2C(=O)Cc2cc(O)no2)cc1F` [Example 88, (1R)-N-(4-(ethyl (dimethyl)silyl)-3,5-difluorophenyl)-2-((3-hydroxy-1,2-oxazol-5-yl)acetyl)-6-methoxy-1,2,3,4-tetrahydroisoquinoline-1-carboxamide], for which the inhibition at 1 µM on RORγt [2] worked out at 102%.
Consider `CCOc1ccc2c(c1)CCN(C(=O)CCCCC(=O)O)[C@H]2C(=O)Nc1ccc([Si](C)(C)C)c(F)c1` [Example 211, 6-((1R)-6-ethoxy-1-((3-fluoro-4-(trimethylsilyl)phenyl)carbamoyl)-3,4-dihydroisoquinolin-2 (1H)-yl)-6-oxohexanoic acid], for which the inhibition at 3 µM on RORγt [1] (Jurkat) is 101%. Moreover, the results for the inhibition at 1 µM on RORγt [2] and at RORγt [3] were 101% and 92%, respectively.
As to `C[Si](C)(C)c1ccc(NC(=O)[C@H]2c3ccc(OC(F)F)cc3CCN2C(=O)CCCC(=O)O)cc1F` [Example 194, 5-((1R)-6-(difluoromethoxy)-1-((3-fluoro-4-(trimethylsilyl)phenyl)carbamoyl)-3,4-dihydroisoquinolin-2(1H)-yl)-5-oxopentanoic acid], at RORγt [1] (Jurkat), the inhibition at 3 µM amounted to 100%. In addition, the inhibition at 1 µM at RORγt [2] was determined as 101%; at RORγt [3], 87%.
For `CCOc1ccc2c(c1)CCN(C(=O)CCCC(=O)O)[C@H]2C(=O)Nc1ccc([Si](C)(C)C)c(C#N)c1` [Example 221, 5-((1R)-1-((3-cyano-4-(trimethylsilyl)phenyl)carbamoyl)-6-ethoxy-3,4-dihydroisoquinolin-2(1H)-yl)-5-oxopentanoic acid], the inhibition at 3 µM at RORγt [1] (Jurkat) came out at 101%. Also, the inhibition at 1 µM stood at 102% on RORγt [2] and 97% on RORγt [3].
On to `CCOc1ccc2c(c1)CCN(C(=O)CCCC(=O)O)[C@H]2C(=O)Nc1cc(F)c([Si](C)(C)C)cc1F` [Example 184, 5-((1R)-1-((2,5-difluoro-4-(trimethylsilyl)phenyl)carbamoyl)-6-ethoxy-3,4-dihydroisoquinolin-2(1H)-yl)-5-oxopentanoic acid], for which the inhibition at 3 µM on RORγt [1] (Jurkat) was 100%. Further, the values for the inhibition at 1 µM at RORγt [2] and at RORγt [3] were 101% and 93%, respectively.
For `C[Si](C)(C)c1c(F)cc(NC(=O)[C@H]2c3ccc(S(C)(=O)=O)cc3CCN2C(=O)CCCC(=O)O)cc1F` [Example 235, 5-((1R)-1-((3,5-difluoro-4-(trimethylsilyl)phenyl)carbamoyl)-6-(methylsulfonyl)-3,4-dihydroisoquinolin-2(1H)-yl)-5-oxopentanoic acid], on RORγt [1] (Jurkat), the inhibition at 3 µM turned out to be 93%. The figures for the inhibition at 1 µM on RORγt [2] and at RORγt [3] were 102% and 45%, respectively.
As to `C[Si](C)(C)c1c(F)cc(NC(=O)[C@H]2c3ccc4c(c3CCN2C(=O)CCCC(=O)O)OCO4)cc1F` [Example 254, 5-((6R)-6-((3,5-difluoro-4-(trimethylsilyl)phenyl)carbamoyl)-8,9-dihydro[1,3]dioxolo[4,5-f]isoquinolin-7(6H)-yl)-5-oxopentanoic acid], at RORγt [1] (Jurkat), the inhibition at 3 µM came to 102%. The inhibition at 1 µM at RORγt [2] is 102%; on RORγt [3] it was 101%.
As to `CCOc1ccc2c(c1)CCN(C(=O)N1CC(CC(=O)O)C1)[C@H]2C(=O)Nc1cc(F)c([Si](C)(C)C)c(F)c1` [Example 231, (1-(((1R)-1-((3,5-difluoro-4-(trimethylsilyl)phenyl)carbamoyl)-6-ethoxy-3,4-dihydroisoquinolin-2(1H)-yl)carbonyl)azetidin-3-yl)acetic acid], the inhibition at 3 µM at RORγt [1] (Jurkat) came to 101%. Further, the values for the inhibition at 1 µM at RORγt [2] and on RORγt [3] were 101% and 96%, respectively.
Turning to `COc1ccc2c(c1)CCN(C(=O)Cc1nnc(C)o1)[C@H]2C(=O)Nc1ccc(C(C)(C)C)c(F)c1` [Example 28, (1R)-N-(4-tert-butyl-3-fluorophenyl)-6-methoxy-2-((5-methyl-1,3,4-oxadiazol-2-yl)acetyl)-1,2,3,4-tetrahydroisoquinoline-1-carboxamide], the inhibition at 3 µM at RORγt [1] (setting [5]) came to 101%. Further, the figures for the inhibition at 1 µM at RORγt [4] and on RORγt [3] were 102% and 83.2%, respectively.
On to `CCOc1ccc2c(c1)CCN(C(=O)CCCC(=O)O)[C@H]2C(=O)Nc1cc(F)c(C(C)(C)COC)c(F)c1` [Example 164, 5-((1R)-1-((3,5-difluoro-4-(1-methoxy-2-methylpropan-2-yl)phenyl)carbamoyl)-6-ethoxy-3,4-dihydroisoquinolin-2(1H)-yl)-5-oxopentanoic acid], for which the inhibition at 3 µM on RORγt [1] (setting [5]) is 101%. For the same compound, the inhibition at 1 µM is 101% on RORγt [4] and 96% at RORγt [3].
Regarding `COc1ccc2c(c1)CCN(C(=O)c1cc(O)no1)[C@H]2C(=O)Nc1cc(F)c(C(C)(C)COCC2CC2)c(F)c1` [Example 158, (1R)-N-(4-(1-(cyclopropylmethoxy)-2-methylpropan-2-yl)-3,5-difluorophenyl)-2-((3-hydroxy-1,2-oxazol-5-yl)carbonyl)-6-methoxy-1,2,3,4-tetrahydroisoquinoline-1-carboxamide], on RORγt [1] (setting [5]), the inhibition at 3 µM stood at 93%. For the same compound, the inhibition at 1 µM on RORγt [4] was found to be 101%; at RORγt [3], 76%.
In the case of `CC[Si](C)(C)c1c(F)cc(NC(=O)[C@H]2c3ccc(OC)cc3CCN2C(=O)CCC(=O)O)cc1F` [Example 87, 4-((1R)-1-((4-(ethyl (dimethyl)silyl)-3,5-difluorophenyl)carbamoyl)-6-methoxy-3,4-dihydroisoquinolin-2 (1H)-yl)-4-oxobutanoic acid], at RORγt [1] (Jurkat), the inhibition at 3 µM came to 102%. The inhibition at 1 µM at RORγt [4] stood at 102%; on RORγt [3] it was 98%.
